{
  "source": "paper PMC5444695",
  "about": "“CM363, a novel naphthoquinone derivative which acts as multikinase modulator and overcomes imatinib resistance in chronic myelogenous leukemia” (Oncotarget, 2016)",
  "key": {"K562 cells": {"test_system": "K562 cells", "assay": "Live-cell imaging (IncuCyte HD) of proliferation and cytotoxicity, K562 cells", "type": "cell-based, human", "conditions": "Homo sapiens, 96 h; IM sensitive K562, continuous exposure over 4-day period, area under curve; read-out: IC50AUC, cytostatic effect on cell growth", "protocol": "Kinetic measurements of cell proliferation and cytotoxicity were carried out by using the IncuCyte^TM HD real time imaging system (Essen BioScience, Hertfordshire, United Kingdom). After seeding in a polylysine-coated 96 well-plates, K562 cells were treated with different concentrations of compound. This IncuCyte™ microscope permits the acquisition of automated phase contrast images. Individual images are processed by an imbedded contrast-based confluence algorithm, which compute monolayer confluence for each image and at each time point. Multiple images are collected per well and averaged to provide a representative statistical measure of confluence."}, "pTyr694-Stat5 (pYStat5)": {"test_system": "pTyr694-Stat5 (pYStat5)", "assay": "Immunoblotting of constitutive pYStat5 in K562 cells", "type": "cell-based", "conditions": "Homo sapiens; K562, 0.05 μM IM, 3 h", "protocol": "Then, cells were rinsed with cold PBS-vanadate (1 mM) followed by preparation of whole lysis extract with RIPA (Pierce, Illinois, USA). Equal amounts of each sample were separated by SDS-PAGE and transfered onto nitrocellulose membranes. After being blocked with 1% BSA-1% Blotto (anti-phospho-antibodies) (Santa Cruz Biotechnology, CA, USA) or 5% blotto (anti-total-antibodies) (Santa Cruz Biotechnology, CA, USA) (both diluted in Tris buffered saline with 0.05% Tween 20), membranes were immunoblotted overnight at 4°C with dilution (1:1000) in the same buffer of blocking of primary phosphoprotein or total protein antibodies. […] To control for differences in loading and transfer efficiency across membranes, membranes were incubated with a monoclonal mouse anti-beta actin antibody (Santa Cruz Biotechnology, CA, USA). The phosphoprotein array analysis of K562 cells was carried out by using the Profiler Human Phospho-Kinase Array Kit ARY003B (R&D Systems, Minneapolis, MN, USA) according to the manufacturer`s instructions."}},
  "note": "Where a name gives a salt, the structure may show the parent alone.",
  "data": [
    {"smiles": "Cc1ccc(NC(=O)c2ccc(CN3CCN(C)CC3)cc2)cc1Nc1nccc(-c2cccnc2)n1", "note": "[IM, imatinib mesylate, reference compound]", "values": [
      {"measurement": "IC50", "setting": "K562 cells", "value": "0.2 ± 0.1", "unit": "µM"},
      {"measurement": "inhibition at 0.05 µM", "setting": "pTyr694-Stat5 (pYStat5)", "value": 40, "unit": "%"}
    ]}
  ]
}
